From the Kinase Knowledgebase extract (Sharma et al. 2016)

What follows are compounds tested against MAPK14 (human) (UniProt Q16539) (assay: Inhibtion of MAPK14 Kinase Activity).
Chain of MAPK14 (human) (Q16539 whole entry, looked up): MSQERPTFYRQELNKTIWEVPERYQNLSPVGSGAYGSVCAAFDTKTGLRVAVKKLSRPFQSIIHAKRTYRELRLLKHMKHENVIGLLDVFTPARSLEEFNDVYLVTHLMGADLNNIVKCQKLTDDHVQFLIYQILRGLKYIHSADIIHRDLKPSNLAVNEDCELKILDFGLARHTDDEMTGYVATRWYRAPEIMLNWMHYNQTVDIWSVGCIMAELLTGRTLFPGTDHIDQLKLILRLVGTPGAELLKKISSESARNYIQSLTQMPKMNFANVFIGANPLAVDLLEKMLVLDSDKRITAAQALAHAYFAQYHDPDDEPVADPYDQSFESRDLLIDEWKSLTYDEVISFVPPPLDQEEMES

IC50, < 100 nM:
Nc1c(C(=O)c2ccc(F)cc2)ccc(=O)n1-c1c(F)cc(OC2CCC(N[C@H](C(=O)O)c3ccccc3)CC2)cc1F (stereo partly drawn)
Nc1c(C(=O)c2ccc(F)cc2F)ccc(=O)n1-c1c(F)cc(OCCCN[C@@H](Cc2ccccc2)C(=O)O)cc1F
Cc1cc(C(=O)c2ccc(=O)n(-c3ccc(OCCCN[C@@H](Cc4ccccc4)C(=O)O)cc3)c2N)ccc1F
CC(C)C[C@@H](NCCCOc1cc(F)c(-n2c(N)c(C(=O)c3ccc(F)cc3F)ccc2=O)c(F)c1)C(=O)O
NCC[C@H](NCCCOc1cc(F)c(-n2c(N)c(C(=O)c3ccc(F)cc3F)ccc2=O)c(F)c1)C(=O)OC1CCCC1
Cc1cc(C(=O)c2ccc(=O)n(-c3c(F)cc(OCCCN[C@@H](Cc4ccccc4)C(=O)O)cc3F)c2N)ccc1F
Nc1c(C(=O)c2ccc(F)cc2F)ccc(=O)n1-c1c(F)cc(OCCCN[C@H](C(=O)OC2CCCC2)c2ccccc2)cc1F
Cc1cc(C(=O)c2ccc(=O)n(-c3ccc(OCCCN[C@@H](Cc4ccccc4)C(=O)OC4CCCC4)cc3)c2N)ccc1F
